Values quoted from earlier work, collected in paper PMC8252455, “Prediction of a clinically effective dose of THY1773, a novel V 1B receptor antagonist, based on preclinical data” (Biopharmaceutics & Drug Disposition, 2021).

Test system: depressive symptoms
Parameters: method as in Griebel, Beeské, & Stahl, 2012
Conditions: patients with MDD; ref Griebel, Beeské, & Stahl, 2012; cited from earlier work

Compound: COc1ccc(S(=O)(=O)N2C(=O)[C@@](c3ccccc3OC)(N3C[C@H](O)C[C@H]3C(=O)N(C)C)c3cc(Cl)ccc32)c(OC)c1 [SSR149415]
- Antidepressant effect in MDD trials: failed to demonstrate clear antidepressant effects
